Test results as given in US20190177371A1, “NOVEL MODULATORS OF MELANOCORTIN RECEPTORS” (ARIZONA BOARD OF REGENTS ON BEHALF OF THE UNIVERSITY OF …, priority 2014, published 2019).

Tests used:
hMC4R [1] = molecular target: T1, hMC4R (Homo sapiens, UniProt P32245); assay: Adenylate cyclase (cAMP) assay in HEK293 cells expressing hMC4R
hMC3R [2] = molecular target: T2, hMC3R (Homo sapiens, UniProt P41968); assay: Adenylate cyclase (cAMP) assay in HEK293 cells expressing hMC3R
hMC1R [3] = molecular target: T3, hMC1R (Homo sapiens, UniProt Q01726); assay: Adenylate cyclase (cAMP) assay in HEK293 cells expressing hMC1R
hMC4R [4] = molecular target: T1, hMC4R; assay: Competitive binding assay with [125I]-NDP-α-MSH on whole HEK293 cells expressing hMC4R
Description: (§1) The pharmacological characterization for the binding efficiencies greater than 70% are defined as competitive binding, binding efficiency less than 70% are non-competitive binding.
(§2) Receptor Binding Assay. Competition binding experiments were carried out using both of cloned cell line and melanoma cells (A375, ATCC). The whole HEK293 cells stably expressing human MC1, MC3, MC4, and MC5 receptors as described before. […] The assay medium was subsequently removed, the cells were washed once with basic medium, and then lysed by the addition of 100 μL of 0.1M NaOH and 100 μL of 1% Triton X-100.

hMC5R [5] = molecular target: T4, hMC5R (Homo sapiens, UniProt P33032); assay: Adenylate cyclase (cAMP) assay in HEK293 cells expressing hMC5R
hMC3R [6] = molecular target: T2, hMC3R; assay: Competitive binding assay with [125I]-NDP-α-MSH on whole HEK293 cells expressing hMC3R
Description: as §1, §2

hMC1R [7] = molecular target: T3, hMC1R; assay: Competitive binding assay with [125I]-NDP-α-MSH on whole HEK293 cells expressing hMC1R
Description: as §1, §2

hMC5R [8] = molecular target: T4, hMC5R; assay: Competitive binding assay with [125I]-NDP-α-MSH on whole HEK293 cells expressing hMC5R
Description: as §1, §2

T2 sequence (P41968 whole entry): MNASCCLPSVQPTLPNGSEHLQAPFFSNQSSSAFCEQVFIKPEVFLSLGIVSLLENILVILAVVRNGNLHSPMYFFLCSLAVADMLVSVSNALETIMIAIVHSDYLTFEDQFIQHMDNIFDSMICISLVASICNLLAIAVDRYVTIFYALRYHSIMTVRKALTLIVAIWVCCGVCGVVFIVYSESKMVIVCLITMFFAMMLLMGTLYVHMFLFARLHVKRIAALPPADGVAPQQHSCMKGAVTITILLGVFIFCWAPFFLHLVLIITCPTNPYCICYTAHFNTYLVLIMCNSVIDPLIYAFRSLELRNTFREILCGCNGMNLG
T3 sequence (Q01726 whole entry): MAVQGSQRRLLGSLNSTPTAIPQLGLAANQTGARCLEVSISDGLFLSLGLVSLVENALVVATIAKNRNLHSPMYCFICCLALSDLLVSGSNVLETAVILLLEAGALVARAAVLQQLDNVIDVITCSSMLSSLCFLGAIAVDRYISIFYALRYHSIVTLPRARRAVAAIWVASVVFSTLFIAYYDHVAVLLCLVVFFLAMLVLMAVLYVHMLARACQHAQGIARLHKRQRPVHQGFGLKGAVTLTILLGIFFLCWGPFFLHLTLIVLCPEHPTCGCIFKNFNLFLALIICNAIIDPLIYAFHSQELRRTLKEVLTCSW
T1 sequence (P32245 whole entry): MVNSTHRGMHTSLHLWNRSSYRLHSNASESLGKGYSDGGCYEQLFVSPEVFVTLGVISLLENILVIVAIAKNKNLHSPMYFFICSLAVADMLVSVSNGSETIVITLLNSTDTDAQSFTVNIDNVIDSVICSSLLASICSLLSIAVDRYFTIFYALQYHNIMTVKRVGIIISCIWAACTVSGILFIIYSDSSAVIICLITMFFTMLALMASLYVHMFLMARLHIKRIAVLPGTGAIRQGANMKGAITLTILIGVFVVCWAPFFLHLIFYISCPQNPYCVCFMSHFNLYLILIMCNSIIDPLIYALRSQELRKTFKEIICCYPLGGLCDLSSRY
T4 sequence (P33032 whole entry): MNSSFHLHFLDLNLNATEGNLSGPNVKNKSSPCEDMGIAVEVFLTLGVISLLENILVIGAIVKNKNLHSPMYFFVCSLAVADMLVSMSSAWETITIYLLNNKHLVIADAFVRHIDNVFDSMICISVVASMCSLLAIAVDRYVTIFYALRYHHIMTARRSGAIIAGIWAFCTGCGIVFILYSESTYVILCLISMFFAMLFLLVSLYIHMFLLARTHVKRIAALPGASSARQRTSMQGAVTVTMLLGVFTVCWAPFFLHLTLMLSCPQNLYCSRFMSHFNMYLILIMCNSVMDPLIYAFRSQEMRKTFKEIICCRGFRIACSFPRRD

functional (cAMP) activity at hMC4R (in words) (hMC4R [1])	functional (cAMP) activity at hMC3R (in words) (hMC3R [2])	functional (cAMP) activity at hMC1R (in words) (hMC1R [3])	binding affinity at hMC4R (in words) (hMC4R [4])	functional (cAMP) activity at hMC5R (in words) (hMC5R [5])	binding affinity at hMC3R (in words) (hMC3R [6])	binding affinity at hMC1R (in words) (hMC1R [7])	binding affinity at hMC5R (in words) (hMC5R [8])	Substance
partial agonistic activities	partial agonistic activities	partial agonistic activities						Ac-Nle-c[Asp-His-(NMe)nal-(NMe)Arg-Trp-Lys]-NH2 [Peptide 14]
partial agonist		full agonist activity						Ac-Nle-c[Asp-His-(NMe)nal-Arg-(NMe)Trp-(NMe)Lys]-NH2 [Peptide 18]
almost a universal antagonist activity	very weak activity	almost a universal antagonist activity		almost a universal antagonist activity				Ac-Nle-c[Asp-His-(NMe)nal-(NMe)Arg-Trp-(NMe)Lys]-NH2 [Peptide 20]
			drastically lost	very selective antagonist	drastically lost	drastically lost		Ac-Nle-c[Asp-His-(NMe)nal-Arg-Trp-(NMe)Lys]-NH2 [Peptide 9]
all functional activities are abolished	all functional activities are abolished	all functional activities are abolished		all functional activities are abolished				Ac-Nle-c[Asp-His-(NMe)nal-(NMe)Arg-(NMe)Trp-Lys]-NH2 [Peptide 23]
	potent antagonist	potent agonist	decreases by 3 orders of magnitude		increases			Ac-Nle-c[Asp-His-nal-(NMe)Arg-Trp-(NMe)Lys]-NH2 [Peptide 8]
		greater loss of functional activity		selective agonist				Ac-Nle-c[Asp-His-nal-Arg-(NMe)Trp-Lys]-NH2 [Peptide 3]
		selective agonist activities						Ac-Nle-c[Asp-(NMe)His-nal-Arg-Trp-(NMe)Lys]-NH2 [Peptide 10]

The remaining lines, values behind:

Substance	functional (cAMP) activity at hMC4R (in words) (hMC4R [1])	functional (cAMP) activity at hMC3R (in words) (hMC3R [2])	functional (cAMP) activity at hMC1R (in words) (hMC1R [3])	binding affinity at hMC4R (in words) (hMC4R [4])	functional (cAMP) activity at hMC5R (in words) (hMC5R [5])	binding affinity at hMC3R (in words) (hMC3R [6])	binding affinity at hMC1R (in words) (hMC1R [7])	binding affinity at hMC5R (in words) (hMC5R [8])
Ac-Nle-c[Asp-(NMe)His-(NMe)nal-Arg-Trp-Lys]-NH2 [Peptide 5]				drastical loss of binding affinity				
Ac-Nle-c[Asp-(NMe)His-nal-(NMe)Arg-(NMe)Trp-Lys]-NH2 [Peptide 24]			selective partial agonist activity		selective partial agonist activity			
Ac-Nle-c[Asp-(NMe)His-nal-(NMe)Arg-Trp-(NMe)Lys]-NH2 [Peptide 21]					retains agonist activity			
Ac-Nle-c[Asp-(NMe)His-nal-Arg-(NMe)Trp-(NMe)Lys]-NH2 [Peptide 19]	no activities	no activities	no activities	good binding	no activities	good binding	good binding	good binding
Ac-Nle-c[Asp-(NMe)His-(NMe)nal-Arg-Trp-(NMe)Lys]-NH2 [Peptide 22]	all functional activities are abolished	all functional activities are abolished	all functional activities are abolished		all functional activities are abolished			
Ac-Nle-c[Asp-(NMe)His-(NMe)nal-Arg-Trp-Lys]-NH2 [Peptide 16]	universal antagonist	universal antagonist	universal antagonist		universal antagonist			
Ac-Nle-c[Asp-(NMe)His-nal-Arg-(NMe)Trp-Lys]-NH2 [Peptide 13]					moderate selective antagonist			
